According to PubChem BioAssay (NCI):
“And” between values parts separate entries of the source, which are not always exact repeats. Equal entries are not always repeated.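 Method: 48-hour compound exposure of cells in 96-well plates, five concentrations, linear interpolation of endpoints. GI50 is the concentration that inhibits growth by half. TGI is the concentration that stops growth completely.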

Tests used:
Test in all cases: NCI anticancer screen, dose series, 48 h
HOP-92 NSCLC = tested on: HOP-92 NSCLC
786-0 renal = tested on: 786-0 renal
SK-OV-3 ovarian = tested on: SK-OV-3 ovarian
A498 renal = tested on: A498 renal
PC-3 prostate = tested on: PC-3 prostate
U251 CNS = tested on: U251 CNS
SF-295 CNS = tested on: SF-295 CNS
NCI-H226 lung = tested on: NCI-H226 lung
CAKI-1 renal = tested on: CAKI-1 renal
HS 578T breast = tested on: HS 578T breast

Structure (SMILES)	GI50 (HOP-92 NSCLC)	TGI (HOP-92 NSCLC)	GI50 (786-0 renal)	TGI (786-0 renal)	GI50 (SK-OV-3 ovarian)	TGI (SK-OV-3 ovarian)	GI50 (A498 renal)	TGI (A498 renal)	GI50 (PC-3 prostate)	TGI (PC-3 prostate)	GI50 (U251 CNS)	TGI (U251 CNS)	GI50 (SF-295 CNS)	TGI (SF-295 CNS)	GI50 (NCI-H226 lung)	TGI (NCI-H226 lung)	GI50 (CAKI-1 renal)	TGI (CAKI-1 renal)	GI50 (HS 578T breast)	TGI (HS 578T breast)
Cc1ccccc1C(C(=O)NC1CCCCC1)N(C(=O)CNc1ncccc1F)c1cccc(F)c1 (centres undefined)	13.9 µM	62.4 µM	32.8 µM	> 100 µM	20.8 µM	> 61 µM	49.6 µM	> 100 µM	> 100 µM	> 100 µM	27.6 µM	> 100 µM	20.6 µM	> 76.8 µM	38.3 µM	> 100 µM	> 53.1 µM	> 100 µM	27.2 µM	> 100 µM
CN1CCN(CCCN2c3ccccc3Sc3ccc(Cl)cc32)CC1	0.894 µM	5.25 µM	6.15 µM and 38 µM	12.8 µM and 61.4 µM	6.93 µM	13.8 µM		5.82 µM and 31.6 µM	3.39 µM	10.4 µM and 80.7 µM		11.8 µM and 87.3 µM	6 µM and 33.2 µM	12.8 µM and 55.6 µM				9.02 µM and 74.2 µM		13.5 µM and 83.2 µM
O=C1NC(=NCCc2ccccn2)S/C1=C\c1ccc2ncccc2c1	9.33 µM	> 25 µM	16.8 µM	> 25 µM	9.1 µM	> 25 µM	4.62 µM	21.1 µM	15.1 µM	> 25 µM	9.23 µM	> 25 µM	> 16.1 µM	> 25 µM	11 µM	> 25 µM	6.94 µM	> 21.7 µM	9.79 µM	> 20.2 µM
CC(C)Cc1ccc(C(C)C(=O)NCc2ccc(Cn3c(=O)sn(CCCI)c3=O)cc2)cc1 (centres undefined)	0.308 µM	1.56 µM	0.475 µM	0.998 µM	2.88 µM	8.23 µM	1.43 µM	2.75 µM	0.732 µM	2.07 µM	1.43 µM	2.89 µM	1.56 µM	3.08 µM	0.884 µM	2.32 µM	0.404 µM	1.61 µM	0.653 µM	1.83 µM
CCOC(=O)c1cc(NS(=O)(=O)c2ccc(C)cc2)cc(C(=O)OCC)c1	32 µM	> 100 µM	53.7 µM	> 100 µM	70.7 µM	> 100 µM	34.3 µM	> 100 µM	47.7 µM	> 100 µM	51.3 µM	> 100 µM	44.9 µM	> 100 µM	54 µM	> 100 µM	43.5 µM	> 100 µM	26.4 µM	69.9 µM
C=C1C(=O)C2=CC1CCC(=O)C1(C)CCC(OC(C)=O)C(C)(C)C1CC2O (centres undefined)		20.3 µM		> 37.7 µM		23 µM		12.6 µM		28.8 µM		> 47.1 µM		25.6 µM		31.9 µM		6.2 µM		20.4 µM
COc1cc(CCNC(=O)OC(C)(C)C)c2c(c1OC)SSSSS2	2.31 µM	4.79 µM	2.08 µM	5.56 µM	2.8 µM	6.05 µM	1.6 µM	3.09 µM	3.72 µM	13.6 µM	2.47 µM	5.28 µM	2.76 µM	6.43 µM	4.3 µM	24.4 µM	2.17 µM	4.28 µM	3.79 µM	32.6 µM
